Experimental data: PubChem BioAssay (NCI)
Converted amounts (≈) assume the structure as drawn.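 Protocol summary: plate cells (96-well), add compound at 5 concentrations, incubate 48 h, interpolate endpoints linearly. The concentration for 50% growth inhibition is given as GI50. TGI: total growth inhibition.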

Columns and labels:
Experiment in all cases: DTP human tumour cell line panel, 48 h
CAKI-1 renal = system: CAKI-1 renal
SF-295 CNS = system: SF-295 CNS
SK-MEL-28 melanoma = system: SK-MEL-28 melanoma
NCI-H23 lung = system: NCI-H23 lung
HL-60(TB) leukemia = system: HL-60(TB) leukemia
HCT-116 colon = system: HCT-116 colon
BT-549 breast = system: BT-549 breast
UACC-257 melanoma = system: UACC-257 melanoma
UO-31 renal = system: UO-31 renal
NCI-H460 lung = system: NCI-H460 lung

SMILES | TGI (CAKI-1 renal) | TGI (SF-295 CNS) | TGI (SK-MEL-28 melanoma) | TGI (NCI-H23 lung) | TGI (HL-60(TB) leukemia) | TGI (HCT-116 colon) | TGI (BT-549 breast) | TGI (UACC-257 melanoma) | TGI (UO-31 renal) | TGI (NCI-H460 lung) | GI50 (SK-MEL-28 melanoma) | GI50 (HL-60(TB) leukemia) | GI50 (HCT-116 colon) | GI50 (CAKI-1 renal) | GI50 (NCI-H23 lung) | GI50 (BT-549 breast) | GI50 (UACC-257 melanoma) | GI50 (UO-31 renal) | GI50 (NCI-H460 lung) | GI50 (SF-295 CNS) [µg/mL]
Nc1nc(N)c2c(n1)NC(c1ccccc1)CC(/C=C/c1ccc(Cl)cc1)=N2 (configuration not stated) | 26.4 µM | 36.2 µM | 28.1 µM | 16.1 µM | 28.2 µM | 4.76 µM | 37.9 µM | 7.78 µM | 23.4 µM | 18 µM | – | – | – | – | – | – | – | – | – | –
CN(CCCNC(=O)c1cn(C)c2c1ccc1cc(Cl)c(Cl)cc12)CCCNC(=O)c1cn(C)c2c1ccc1cc(Cl)c(Cl)cc12 | 27.1 µM | 38.3 µM | 42 µM | 31.4 µM | 8.32 µM | 31.2 µM | 33.3 µM | 52.4 µM | 39.6 µM | 29.8 µM | – | – | – | – | – | – | – | – | – | –
CC(Sc1ccccc1)C(CO)(CO)[N+](=O)[O-] (configuration not stated) | 33.1 µM | 28.9 µM | – | 33.3 µM | 16 µM | 31.6 µM | – | 30.2 µM | 22.6 µM | 50.7 µM | – | – | – | – | – | – | – | – | – | –
O=S(=O)(/N=C(\NO)Nc1ccc(Cl)cc1)c1ccc(S(=O)(=O)c2ccccc2)s1 | 91.4 µM | > 100 µM | 40.7 µM | 52.1 µM | 50.6 µM | 30.4 µM | 44.7 µM | 41 µM | 53.8 µM | 29.1 µM | – | – | – | – | – | – | – | – | – | –
CN(C)CCn1c(=O)c2ccc3c4c(nn3CCN(C)C)c3cc(N)ccc3n(c1=O)c24 | 1.47 µM | 0.584 µM | 0.394 µM | 0.021 µM | 0.506 µM | 0.0716 µM | 0.78 µM | 0.433 µM | 0.0501 µM | 0.0904 µM | – | – | – | – | – | – | – | – | – | –
N[C@H]1CCN(c2c(F)cc3c(=O)c(C(=O)O)cn4c3c2Oc2cc3c(ccc5ccccc53)cc2-4)C1 | > 100 µM | > 100 µM | – | > 100 µM | > 100 µM | > 100 µM | > 100 µM | > 100 µM | > 100 µM | 5.28 µM | – | – | – | – | – | – | – | – | – | –
O=CN1CCN(C(=O)c2cc(Cl)cc(Cl)c2)C1=S | 26 µM | 36 µM | 39.2 µM | 32.5 µM | 29.7 µM | 32.7 µM | 31.3 µM | 32.3 µM | – | 51.2 µM | – | – | – | – | – | – | – | – | – | –
O=[N+]([O-])c1ccc2c(c1)c(N=NC(=S)NC1CCCCC1)c(O)n2CN1CCOCC1 | 14.3 µM | 16.6 µM | 25.6 µM | 21.4 µM | 17.2 µM | 16.2 µM | 20.8 µM | 22.7 µM | 18.4 µM | 13.5 µM | – | – | – | – | – | – | – | – | – | –
C/C(=N\NC(=O)c1cccnc1)c1cccc(/C(C)=N/NC(=O)c2cccnc2)n1 | – | 20.5 µM | > 100 µM | > 100 µM | > 100 µM | > 100 µM | – | 35.4 µM | 80.7 µM | 34.6 µM | 9.56 µM | 1.67 µM | 4.24 µM | – | – | – | – | – | – | –
CS(=O)(=O)c1nc(-c2cc3c(c(S(C)(=O)=O)n2)CCCC3)cc2c1CCCC2 | > 59.1 µM | > 93.9 µM | > 100 µM | > 100 µM | > 100 µM | > 100 µM | > 82.2 µM | > 100 µM | 0.111 µM | – | – | – | – | – | – | – | – | – | – | –
CC(=O)N(C)c1ccc2c(ccc[n+]2[O-])c1[N+](=O)[O-] | > 100 µM | > 100 µM | > 100 µM | > 100 µM | > 100 µM | > 100 µM | – | > 100 µM | > 100 µM | > 100 µM | – | – | – | – | – | – | – | – | – | –
COc1ccc(N=c2ssc(C(=S)Nc3ccc(OC)cc3)c2S)cc1 | > 100 µM | > 100 µM | > 100 µM | > 100 µM | > 100 µM | > 100 µM | > 100 µM | > 100 µM | > 100 µM | > 100 µM | – | – | – | – | – | – | – | – | – | –
CCC(C)C1NC(=O)C2CCCN2C(=O)C(CC2CO2)OC(=O)CCNC(=O)C(C)N(C)C(=O)C(C(C)C)N(C)C1=O (configuration not stated) | > 100 µM | – | > 100 µM | > 100 µM | – | – | > 100 µM | – | 15 µM | > 100 µM | – | – | – | – | – | – | – | – | – | –
C[C@]12CC[C@@H]3c4ccccc4CC[C@H]3[C@@H]1CC[C@@H]2O | – | > 100 µM | > 100 µM | > 100 µM | – | > 100 µM | – | > 100 µM | > 100 µM | > 100 µM | – | – | – | – | – | – | – | – | – | –
CN1C2CCC1C(C(O)c1ccccc1[N+](=O)[O-])C(=O)C2 (configuration not stated) | > 100 µM | > 100 µM | > 100 µM | > 100 µM | > 100 µM | > 100 µM | > 100 µM | > 100 µM | > 100 µM | > 100 µM | – | – | – | – | – | – | – | – | – | –
Nc1ccc2c(c1)C(=O)N(O)C2=O | – | > 100 µM | > 100 µM | > 100 µM | > 100 µM | > 100 µM | – | > 100 µM | > 100 µM | > 100 µM | – | – | – | – | – | – | – | – | – | –
NCCNc1nc(N2CCCC2)c2nc(Cl)c(NCc3ccccc3)nc2n1 | 15.2 µM | 3.5 µM | 3.39 µM | 5.46 µM | 3.99 µM | 2.93 µM | 4.12 µM | 4 µM | 3.32 µM | 3.54 µM | – | – | – | – | – | – | – | – | – | –
OCCOCn1cc(Cn2ncc3c(SCc4ccccc4)ncnc32)nn1 | > 100 µM | > 100 µM | > 100 µM | > 100 µM | 45.1 µM | > 100 µM | > 100 µM | > 100 µM | > 100 µM | > 100 µM | – | – | – | – | – | – | – | – | – | –
COC(=O)C1C(C)N1C (configuration not stated) | – | – | > 100 µM | > 100 µM | > 100 µM | – | – | > 100 µM | – | > 100 µM | – | – | – | – | – | – | – | – | – | –
Clc1ccc(Nc2nc(Cl)c3[nH]cnc3n2)cc1Cl | 16.6 µM | 79.7 µM | – | 73.2 µM | 47.7 µM | 86.7 µM | 79.1 µM | 83.3 µM | 66.6 µM | 62.7 µM | – | – | – | – | – | – | – | – | – | –
COc1ccc(/C=C(\C#N)c2nc(N)nc(N3N=C(C)CC3(C)C)n2)c(O)c1 | 38.1 µM | 43 µM | 29.6 µM | 42.3 µM | 46.8 µM | 31.4 µM | > 100 µM | 59.1 µM | 36 µM | 38.2 µM | – | – | – | – | – | – | – | – | – | –
COc1c2c(cc3c1C(O)N1CC[C@]34[C@H]3O[C@H]3[C@H](OC)C[C@@H]14)OCO2 (some centres not stated) | > 100 µM | 71.7 µM | > 100 µM | > 100 µM | 3.53 µM | > 100 µM | > 100 µM | > 100 µM | > 100 µM | > 100 µM | – | – | – | – | – | – | – | – | – | –
C[C@]12CCC(=O)C=C1CC[C@@H]1[C@@H]2[C@@H](O)C[C@@]2(C)[C@H]1CC[C@]2(O)C(=O)CO | > 100 µM | > 100 µM | > 100 µM | > 100 µM | > 100 µM | > 100 µM | > 100 µM | > 100 µM | > 100 µM | > 100 µM | – | – | – | – | – | – | – | – | – | –
O=S(=O)(O)c1cccc2c(N=Nc3c(O)ccc4ccccc34)cccc12 | > 100 µM | > 100 µM | > 100 µM | > 100 µM | – | > 100 µM | > 100 µM | > 100 µM | > 100 µM | – | – | – | – | – | – | – | – | – | – | –
[O-][N+](CCO)(CCO)c1ncnc2nc[nH]c12 | > 100 µM | > 100 µM | > 100 µM | > 100 µM | – | > 100 µM | > 100 µM | > 100 µM | > 100 µM | – | – | – | – | – | – | – | – | – | – | –
Nc1ccccc1N/C(=C\C(=O)C(Cl)(Cl)Cl)c1ccccc1 | > 100 µM | > 100 µM | > 100 µM | > 100 µM | 55.3 µM | 38.2 µM | 91.6 µM | 79.1 µM | 39 µM | 69.4 µM | – | – | – | – | – | – | – | – | – | –
O=C(CCN1CC2CCC(CC2)C1)c1cccs1 | 34.5 µM | > 100 µM | 32.5 µM | 36.7 µM | 44.3 µM | 42 µM | 39 µM | 30.4 µM | 23.9 µM | 37.5 µM | – | – | – | – | – | – | – | – | – | –
O=[n+]1c2c(n([O-])c3ccccc31)-c1cccc3cccc-2c13 | – | > 100 µM | – | > 100 µM | > 100 µM | > 100 µM | – | > 100 µM | > 100 µM | > 100 µM | – | – | – | – | – | – | – | – | – | –
O=C1c2cc3c(cc2-c2c1c1ccc(Cl)cc1c(=O)n2C[C@H](O)[C@@H](O)[C@H](O)CO)OCO3 | 0.4 µM | – | 1.16 µM | 0.193 µM | – | – | 1.36 µM | 0.396 µM | 0.125 µM | 0.153 µM | 0.0997 µM | – | – | 0.0325 µM | 0.0293 µM | 0.0301 µM | 0.0771 µM | 0.0297 µM | 0.0284 µM | –
CC1(C)CC(=O)C2=C(C1)NC(SSC1=C(C#N)C(c3ccc(F)cc3)C3=C(CC(C)(C)CC3=O)N1)=C(C#N)C2c1ccc(F)cc1 (configuration not stated) | 50.7 µg/mL | > 150 µg/mL | 46.4 µg/mL | 68.2 µg/mL | > 150 µg/mL | 47.3 µg/mL | 55.4 µg/mL | 51.6 µg/mL | 74.9 µg/mL | > 150 µg/mL | 25.8 µg/mL | 47.1 µg/mL | 26.5 µg/mL | 29.5 µg/mL | 31.1 µg/mL | 30 µg/mL | 30.2 µg/mL | 32 µg/mL | 47.8 µg/mL | 150 (≈ 229 µM)
